Like-named read-outs stand apart in the source and are kept apart here.
Experiments:
[1] = test system: THP-1 cells; assay: TNFα generation assay; format: cell-based, human; settings: Table 22, read-out: IC50 in TNFα generation assay
Outline: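 THP-1 cells differentiated to macrophage-like cells with 10 ng/ml IFN-γ for 2 days, preincubated with compound 30 min at room temperature, then cultured 7 h on plates coated with human IgG (10 μg/ml). Secreted TNFα measured by ELISA or AlphaLISA.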

[2] = target: T1, glutathione S-transferase (GST)-fused full-length human Syk protein (Homo sapiens, UniProt P43405); assay: Syk enzyme assay; format: biochemical; settings: Syk enzyme assay, Test Example 1; read-out: IC50 of Syk-inhibitory activity
T1 construct: (GST)-fused full-length human Syk protein; GST (glutathione S-transferase); purchased Carna Biosciences
Outline: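 GST-tagged full-length human Syk (baculovirus) preincubated with compound 15 min at room temperature (pH 7.0, 10 mM MgCl2), then reacted 40 min with 0.4 μM biotinylated peptide substrate and 27 μM ATP (final). Phosphorylation read by HTRF (615/665 nm) after EDTA stop; IC50 reported.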

[3] = Homo sapiens, THP-1, THP-1 cells

| SMILES | IC50 [1, 3] [nM] | IC50 [2] [nM] | IC50 ([1]; THP-1 cells) [nM] |
| --- | --- | --- | --- |
| NCC(CCC(F)(F)F)Nc1nc(Nc2ccc3ncccc3c2)c(C(N)=O)cc1F (stereo not shown) [Example 006-304, 6-((1-amino-5,5,5-trifluoropentan-2-yl)amino)-5-fluoro-2-((quinolin-6-yl)amino)nicotinamide] | 130 to 200 | < 10 |  |
| CCCC[C@@H](Nc1nc(Nc2cncc(C3CC3)c2)c(C(N)=O)cc1F)[C@H](C)N [Example 006-408, 6-(((2S,3R)-2-aminoheptan-3-yl)amino)-2-((5-cyclopropylpyridin-3-yl)amino)-5-fluoronicotinamide] | 130 to 200 | < 10 |  |
| CC[C@@H](Nc1nc(Nc2ccc3c(c2)c(C)nn3C)c(C(N)=O)cc1F)[C@H](C)N [Example 006-524, 6-(((2S,3R)-2-aminopentan-3-yl)amino)-2-((1,3-dimethyl-1H-indazol-5-yl)amino)-5-fluoronicotinamide] | < 65 | < 10 |  |
| COc1cc(Nc2nc(N[C@@H](CN)CC(C)C)c(F)cc2C(N)=O)cc(OC)n1 [Example 006-156, (R)-6-((1-amino-4-methylpentan-2-yl)amino)-2-((2,6-dimethoxypyridin-4-yl)amino)-5-fluoronicotinamide] | 130 to 200 | < 10 |  |
| NC(=O)c1cc(F)c(N[C@@H]2CCCC[C@@H]2N)nc1Nc1ccnc(-n2nccn2)c1 (relative stereo) [Example 006-125, 2-((2-(2H-1,2,3-triazol-2-yl)pyridin-4-yl)amino)-6-((cis-2-aminocyclohexyl)amino)-5-fluoronicotinamide] | 65 to 130 | < 10 |  |
| CCc1nn(CC(F)F)c2ccc(Nc3nc(N[C@@H]4CCCC[C@@H]4N)c(F)cc3C(N)=O)cc12 [Example 006-455, 6-(((1R,2S)-2-aminocyclohexyl)amino)-2-((1-(2,2-difluoroethyl)-3-ethyl-1H-indazol-5-yl)amino)-5-fluoronicotinamide] | 65 to 130 | < 10 |  |
| CCn1ncc2cc(Nc3nc(N[C@H](C4CC4)[C@H](C)N)c(F)cc3C(N)=O)ccc21 [Example 006-471, 6-(((1R,2S)-2-amino-1-cyclopropylpropyl)amino)-2-((1-ethyl-1H-indazol-5-yl)amino)-5-fluoronicotinamide] | < 65 | < 10 |  |
| CCCC[C@H](CN)Nc1nc(Nc2cncc(-c3ccccc3)c2)c(C(N)=O)cc1F [Example 006-295, (R)-6-((1-aminohexan-2-yl)amino)-5-fluoro-2-((5-phenylpyridin-3-yl)amino)nicotinamide] | 130 to 200 | 10 to 50 |  |
| CC[C@@H](Nc1nc(Nc2ccc3c(cnn3CCF)c2)c(C(N)=O)cc1F)[C@H](C)N [Example 006-416, 6-(((2S,3R)-2-aminopentan-3-yl)amino)-5-fluoro-2-((1-(2-fluoroethyl)-1H-indazol-5-yl)amino)nicotinamide] | 65 to 130 | < 10 |  |
| COc1nn(C)c2ccc(Nc3nc(N[C@H](CC(C)C)[C@H](C)N)c(F)cc3C(N)=O)cc12 [Example 006-587, 6-(((2S,3R)-2-amino-5-methylhexan-3-yl)amino)-5-fluoro-2-((3-methoxy-1-methyl-1H-indazol-5-yl)amino)nicotinamide] | 65 to 130 | < 10 |  |
| CC[C@@H](Nc1nc(Nc2ccc3c(cnn3CCOC)c2)c(C(N)=O)cc1F)[C@H](C)N [Example 006-313, 6-(((2S,3R)-2-aminopentan-3-yl)amino)-5-fluoro-2-((1-(2-methoxyethyl)-1H-indazol-5-yl)amino)nicotinamide] | 65 to 130 | < 10 |  |
| CCn1ncc2cc(Nc3nc(NC4CCCCC4N)c(F)cc3C(N)=O)ccc21 (stereo not shown) [Example 002-125] | 65 to 130 | < 10 |  |
| CCn1nc(C2CC2)c2cc(Nc3nc(N[C@H](CC(C)C)[C@H](C)N)c(F)cc3C(N)=O)ccc21 [Example 006-550, 6-(((2S,3R)-2-amino-5-methylhexan-3-yl)amino)-2-((3-cyclopropyl-1-ethyl-1H-indazol-5-yl)amino)-5-fluoronicotinamide] | 130 to 200 | < 10 |  |
| CCC[C@@H](Nc1nc(Nc2cnc(C)c(-n3nccn3)c2)c(C(N)=O)cc1F)[C@H](C)N [Example 006-252, 6-(((2S,3R)-2-aminohexan-3-yl)amino)-5-fluoro-2-((6-methyl-5-(2H-1,2,3-triazol-2-yl)pyridin-3-yl)amino)nicotinamide] | 65 to 130 | < 10 |  |
| Cc1nccc(Nc2nc(NC3CCCCC3N)c(F)cc2C(N)=O)c1F (stereo not shown) [Example 002-163] | 130 to 200 | 10 to 50 |  |
| NC(=O)c1cc(F)c(N[C@@H]2CCCC[C@@H]2N)nc1Nc1cncc(-c2ccc(F)cc2F)c1 (relative stereo) [Example 004-181, 6-(cis-2-aminocyclohexylamino)-2-((5-(2,4-difluorophenyl)pyridin-3-yl)amino)-5-fluoronicotinamide] | 130 to 200 | < 10 |  |
| CCC[C@H](CN)Nc1nc(Nc2ccc3ncccc3c2)c(C(N)=O)cc1F [Example 006-161, (R)-6-((1-aminopentan-2-yl)amino)-5-fluoro-2-(quinolin-6-ylamino)nicotinamide] | < 65 | < 10 |  |
| NC(=O)c1cc(F)c(N[C@@H]2CCCC[C@@H]2N)nc1Nc1cnc2c(N3CCOCC3)cccc2c1 [Example 004-033] | 130 to 200 | < 10 |  |

| SMILES | IC50 [1, 3] [nM] | IC50 [2] [nM] | IC50 ([1]; THP-1 cells) [nM] |
| --- | --- | --- | --- |
| CCC[C@@H](Nc1nc(Nc2ccnc(-c3ccc(OC)cc3)c2)c(C(N)=O)cc1F)[C@H](C)N [Example 006-335, 6-(((2S,3R)-2-aminohexan-3-yl)amino)-5-fluoro-2-((2-(4-methoxyphenyl)pyridin-4-yl)amino)nicotinamide] | 130 to 200 | < 10 |  |
| CC[C@@H](Nc1nc(Nc2ccnc(-c3ccccc3F)c2)c(C(N)=O)cc1F)[C@H](C)N [Example 006-329, 6-(((2S,3R)-2-aminopentan-3-yl)amino)-5-fluoro-2-((2-(2-fluorophenyl)pyridin-4-yl)amino)nicotinamide] | < 65 | < 10 |  |
| CCn1ncc2c(Nc3nc(NC4CCCCC4N)c(F)cc3C(N)=O)cccc21 (stereo not shown) [Example 002-186] | 65 to 130 | < 10 |  |
| CC[C@@H](Nc1nc(Nc2ccc3c(c2)c(N2CCOCC2)nn3C)c(C(N)=O)cc1F)[C@H](C)N [Example 006-563, 6-(((2S,3R)-2-aminopentan-3-yl)amino)-5-fluoro-2-((1-methyl-3-morpholino-1H-indazol-5-yl)amino)nicotinamide] | 130 to 200 | < 10 |  |
| CNc1cc(Nc2nc(NC3CCCCC3N)c(F)cc2C(N)=O)ccn1 (stereo not shown) [Example 002-058] | 65 to 130 | < 10 |  |
| NC(=O)c1cc(F)c(N[C@@H]2CCCC[C@@H]2N)nc1Nc1cncc(-c2ccccc2F)c1 [Example 006-166, 6-(((1R,2S)-2-aminocyclohexyl)amino)-5-fluoro-2-((5-(2-fluorophenyl)pyridin-3-yl)amino)fluoronicotinamide] |  | < 10 | < 65 |
| CCC[C@@H](Nc1nc(Nc2ccc3c(cnn3CC)c2)c(C(N)=O)cc1F)[C@H](C)N [Example 006-237, 6-(((2S,3R)-2-aminohexan-3-yl)amino)-2-((1-ethyl-1H-indazol-5-yl)amino)-5-fluoronicotinamide] | < 65 | < 10 |  |
| NC(=O)c1cc(F)c(N[C@@H]2CCCC[C@@H]2N)nc1Nc1cccnc1 (relative stereo) [Example 004-096, 6-(cis-2-aminocyclohexylamino)-5-fluoro-2-((pyridin-3-yl)amino)nicotinamide] | 65 to 130 | 10 to 50 |  |
| C[C@H](N)[C@@H](CC1CC1)Nc1nc(Nc2ccc3ncccc3c2)c(C(N)=O)cc1F [Example 006-217, 6-(((2R,3S)-3-amino-1-cyclopropylbutan-2-yl)amino)-5-fluoro-2-((quinolin-6-yl)amino)nicotinamide] | < 65 | < 10 |  |
| COC(=O)c1cncc(Nc2nc(N[C@@H]3CCCC[C@@H]3N)c(F)cc2C(N)=O)c1 [Example 004-016] | 65 to 130 | < 10 |  |
| NC(=O)c1cc(F)c(N[C@@H]2CCCC[C@@H]2N)nc1Nc1cncc2c1cnn2-c1ccccc1 [Example 004-020] | 130 to 200 | < 10 |  |
| Cn1ccc2c(Nc3nc(N[C@@H]4CCCC[C@@H]4N)c(F)cc3C(N)=O)cncc21 [Example 004-006] | 65 to 130 | < 10 |  |
| NC(=O)c1cc(F)c(N[C@@H]2CCCC[C@@H]2N)nc1Nc1ccc2cnn(C3CC3)c2c1 [Example 006-473, 6-(((1R,2S)-2-aminocyclohexyl)amino)-2-((1-cyclopropyl-1H-indazol-6-yl)amino)-5-fluoronicotinamide] | < 65 | < 10 |  |
| C[C@H](N)[C@H](Nc1nc(Nc2cncc(C3CC3)c2)c(C(N)=O)cc1F)C1CC1 [Example 006-371, 6-(((1R,2S)-2-amino-1-cyclopropylpropyl)amino)-2-((5-cyclopropylpyridin-3-yl)amino)-5-fluoronicotinamide] | 65 to 130 | < 10 |  |
| Cn1ncc2cc(Nc3nc(N[C@@H]4CCCC[C@@H]4N)c(F)cc3C(N)=O)cnc21 [Example 004-213] | 65 to 130 | 10 to 50 |  |
| NC(=O)c1cc(F)c(N[C@@H]2CCCC[C@@H]2N)nc1Nc1cnc2ccncc2c1 [Example 004-003] | < 65 | 10 to 50 |  |
| CCC[C@@H](Nc1nc(Nc2ccc3nc(C)c(C)nc3c2)c(C(N)=O)cc1F)[C@H](C)N [Example 006-306, 6-(((2S,3R)-2-aminohexan-3-yl)amino)-2-((2,3-dimethylquinoxalin-6-yl)amino)-5-fluoronicotinamide] | 65 to 130 | < 10 |  |

Reference: patent US8895585B2, “Nicotinamide derivative or salt thereof” (FUJIFILM Corporation, priority 2010, dated 2014)
